# Assay results as given in ChEMBL document CHEMBL1201862, “PubChem BioAssay data set” (2004).
# The source made the active and inactive calls.
# How the values were obtained:
# Paired box protein Pax-8 = Paired box protein Pax-8 (Homo sapiens, UniProt Q06710); experiment: inhibitors of PAX8-driven TPO luciferase reporter, dose response, RMG-I cells, cherry-pick (AID 687027); assay type: functional, cell-based;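 further: luciferase reporter driven by Pax8 target thyroperoxidase promoter measured by SteadyGlo luminescence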
# [1] = IGROV1 ovarian cancer cell cytotoxicity, dose response, PAX8 inhibitor project, plate reader, dry powder samples (AID 743043); assay type: functional, cell-based; conditions: IGROV-1
# [2] = cytotoxicity in OVCAR8 ovarian cancer cells, dose response, PAX8 project, cell-based, plate reader, dry powder samples (AID 743197); assay type: functional; conditions: OVCAR-8
# [3] = molecular target: T1, Histone-lysine N-methyltransferase NSD2 (Homo sapiens, UniProt O96028); assay type: biochemical
# T1 sequence (O96028 whole entry): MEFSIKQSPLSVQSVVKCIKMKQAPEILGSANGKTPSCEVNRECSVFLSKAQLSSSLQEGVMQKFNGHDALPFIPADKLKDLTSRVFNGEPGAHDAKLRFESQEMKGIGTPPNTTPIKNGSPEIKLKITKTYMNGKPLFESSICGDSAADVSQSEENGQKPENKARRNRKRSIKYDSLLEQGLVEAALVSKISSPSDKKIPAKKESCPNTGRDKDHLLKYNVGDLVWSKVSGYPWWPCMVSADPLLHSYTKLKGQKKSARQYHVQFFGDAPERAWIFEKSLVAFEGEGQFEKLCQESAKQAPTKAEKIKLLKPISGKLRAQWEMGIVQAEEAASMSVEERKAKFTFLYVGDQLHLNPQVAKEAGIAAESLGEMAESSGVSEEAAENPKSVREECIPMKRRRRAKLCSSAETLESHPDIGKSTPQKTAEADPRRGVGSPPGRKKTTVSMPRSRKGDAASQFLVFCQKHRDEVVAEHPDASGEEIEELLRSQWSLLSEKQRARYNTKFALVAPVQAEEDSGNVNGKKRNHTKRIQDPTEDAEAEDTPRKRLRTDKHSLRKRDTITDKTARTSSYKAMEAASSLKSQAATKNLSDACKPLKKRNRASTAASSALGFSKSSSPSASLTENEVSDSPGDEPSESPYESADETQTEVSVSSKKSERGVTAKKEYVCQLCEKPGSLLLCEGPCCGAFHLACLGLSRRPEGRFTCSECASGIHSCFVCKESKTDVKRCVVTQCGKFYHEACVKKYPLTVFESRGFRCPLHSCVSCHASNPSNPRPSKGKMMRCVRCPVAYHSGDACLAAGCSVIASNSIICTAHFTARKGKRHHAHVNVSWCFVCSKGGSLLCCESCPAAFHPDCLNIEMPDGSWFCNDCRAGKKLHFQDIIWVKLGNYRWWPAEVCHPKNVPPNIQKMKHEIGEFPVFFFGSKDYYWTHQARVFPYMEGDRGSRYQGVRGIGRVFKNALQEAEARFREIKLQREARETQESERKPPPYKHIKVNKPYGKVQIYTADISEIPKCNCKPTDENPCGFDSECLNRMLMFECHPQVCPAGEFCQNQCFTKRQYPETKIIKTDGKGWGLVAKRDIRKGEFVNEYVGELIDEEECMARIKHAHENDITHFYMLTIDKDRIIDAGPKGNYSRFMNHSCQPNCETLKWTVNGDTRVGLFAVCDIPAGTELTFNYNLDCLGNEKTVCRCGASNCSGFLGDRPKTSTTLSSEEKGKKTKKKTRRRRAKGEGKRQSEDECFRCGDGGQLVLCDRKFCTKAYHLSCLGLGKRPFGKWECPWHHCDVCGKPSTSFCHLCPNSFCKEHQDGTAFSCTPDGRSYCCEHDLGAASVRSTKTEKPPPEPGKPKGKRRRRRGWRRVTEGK
# [4] = molecular target: T2, Replicative DNA helicase DnaB (Mycobacterium tuberculosis, UniProt P9WMR3); experiment: DnaB intein splicing inhibitors, dose response, biochemical, cell-free fluorescence (AID 449749); assay type: functional
# T2 sequence (P9WMR3 whole entry): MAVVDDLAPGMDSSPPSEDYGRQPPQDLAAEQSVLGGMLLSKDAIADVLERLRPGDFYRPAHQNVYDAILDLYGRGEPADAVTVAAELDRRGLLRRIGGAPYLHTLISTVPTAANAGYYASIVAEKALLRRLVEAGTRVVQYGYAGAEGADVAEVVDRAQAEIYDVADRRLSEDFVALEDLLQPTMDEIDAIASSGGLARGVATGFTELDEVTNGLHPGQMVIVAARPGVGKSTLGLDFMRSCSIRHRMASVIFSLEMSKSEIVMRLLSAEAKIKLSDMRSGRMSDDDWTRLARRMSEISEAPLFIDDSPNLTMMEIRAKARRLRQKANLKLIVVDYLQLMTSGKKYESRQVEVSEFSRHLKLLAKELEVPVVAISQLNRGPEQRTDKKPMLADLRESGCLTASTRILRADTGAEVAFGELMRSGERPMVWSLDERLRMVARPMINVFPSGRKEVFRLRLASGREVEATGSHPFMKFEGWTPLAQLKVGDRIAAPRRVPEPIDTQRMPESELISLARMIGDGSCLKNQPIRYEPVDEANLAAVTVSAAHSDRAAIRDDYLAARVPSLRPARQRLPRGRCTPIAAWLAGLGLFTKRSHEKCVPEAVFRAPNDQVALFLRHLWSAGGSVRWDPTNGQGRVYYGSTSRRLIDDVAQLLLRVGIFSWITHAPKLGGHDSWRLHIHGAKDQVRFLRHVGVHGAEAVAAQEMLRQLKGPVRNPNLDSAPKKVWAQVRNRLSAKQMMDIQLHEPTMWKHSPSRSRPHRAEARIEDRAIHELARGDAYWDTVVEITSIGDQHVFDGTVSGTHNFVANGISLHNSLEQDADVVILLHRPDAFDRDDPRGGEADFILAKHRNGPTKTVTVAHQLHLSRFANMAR
# Protein RecA = molecular target: T3, Protein RecA (Mycobacterium tuberculosis, UniProt P9WHJ3); experiment: Fluorescence Cell-Free Homogeneous Dose Retest to Identify Inhibitors of RecA-Intein Splicing Activity. [Related pubchem assays (depositor defined):AID2097, AID2223, AID489010, AID492950]; assay type: functional
# T3 sequence (P9WHJ3 whole entry): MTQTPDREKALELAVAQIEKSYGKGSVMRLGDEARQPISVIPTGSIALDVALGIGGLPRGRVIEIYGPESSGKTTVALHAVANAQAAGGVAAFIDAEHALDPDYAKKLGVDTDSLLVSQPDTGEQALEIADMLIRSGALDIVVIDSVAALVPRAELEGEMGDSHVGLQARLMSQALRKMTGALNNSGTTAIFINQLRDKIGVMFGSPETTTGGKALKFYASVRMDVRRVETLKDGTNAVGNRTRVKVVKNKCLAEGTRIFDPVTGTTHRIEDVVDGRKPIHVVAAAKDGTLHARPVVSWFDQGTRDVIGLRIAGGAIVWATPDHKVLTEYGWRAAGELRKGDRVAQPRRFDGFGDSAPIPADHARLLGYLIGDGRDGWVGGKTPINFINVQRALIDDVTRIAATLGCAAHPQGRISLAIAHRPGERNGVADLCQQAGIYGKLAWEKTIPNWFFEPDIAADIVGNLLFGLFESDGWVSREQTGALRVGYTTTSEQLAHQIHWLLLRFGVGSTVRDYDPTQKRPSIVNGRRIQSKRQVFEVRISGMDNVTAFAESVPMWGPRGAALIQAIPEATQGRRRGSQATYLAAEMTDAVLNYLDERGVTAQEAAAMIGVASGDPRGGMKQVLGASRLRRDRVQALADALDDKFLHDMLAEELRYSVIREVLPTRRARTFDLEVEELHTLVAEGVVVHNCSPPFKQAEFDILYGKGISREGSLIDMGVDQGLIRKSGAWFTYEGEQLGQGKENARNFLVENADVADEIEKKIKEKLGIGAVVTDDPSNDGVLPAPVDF
# Nonstructural protein 1 = Nonstructural protein 1 (Influenza A virus, UniProt Q194T2); assay type: functional, Influenza A virus (A/California/07/2009(H1N1))
# Streptokinase A = molecular target: T4, Streptokinase A (Streptococcus pyogenes serotype M1, UniProt P10520); experiment: S. pyogenes streptokinase expression inhibitors, potency, dose response, plasminogen activation absorbance, OD405 (AID 1914); assay type: functional, Streptococcus pyogenes M1 GAS;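 further: secreted streptokinase activity via plasminogen activation per viability signal from cell pellet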
# T4 sequence (P10520 whole entry): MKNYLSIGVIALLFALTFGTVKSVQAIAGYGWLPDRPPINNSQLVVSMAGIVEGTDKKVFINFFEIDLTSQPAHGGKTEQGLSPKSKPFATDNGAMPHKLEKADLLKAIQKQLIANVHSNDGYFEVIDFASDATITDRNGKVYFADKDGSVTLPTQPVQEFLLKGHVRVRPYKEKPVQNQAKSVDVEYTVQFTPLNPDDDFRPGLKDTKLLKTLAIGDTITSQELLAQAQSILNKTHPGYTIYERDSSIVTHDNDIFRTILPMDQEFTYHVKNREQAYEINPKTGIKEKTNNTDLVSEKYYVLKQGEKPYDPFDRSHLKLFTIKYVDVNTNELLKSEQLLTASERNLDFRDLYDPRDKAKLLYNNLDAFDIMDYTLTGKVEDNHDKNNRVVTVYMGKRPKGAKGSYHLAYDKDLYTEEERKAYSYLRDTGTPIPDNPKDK
# Streptococcus = experiment: Group A Streptococcus viability loss, dose response, counter-screen for streptokinase expression inhibitor project, luminescence, BacTiterGlo (AID 1915); assay type: functional, organism-based;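 further: potency for reduction of bacterial viability or growth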
# [5] = system: Streptococcus sp. 'group A'; experiment: growth inhibition of control SK(-) GAS strain, dose response, counter-screen for streptokinase expression inhibitor project, luminescence, kanamycin, BacTiterGlo, confirmation (AID 1900); assay type: functional, organism-based
# [6] = molecular target: T5, Short transient receptor potential channel 4 (Mus musculus, UniProt Q9QUQ5); experiment: mouse TRPC4 channel inhibitors, dose response, cell-based, HEK293 TRPC4/mu-opioid, Fluo-4 calcium (AID 434942); assay type: functional;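 further: potency of inhibitors blocking the TRPC4 calcium response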
# T5 sequence (Q9QUQ5 whole entry): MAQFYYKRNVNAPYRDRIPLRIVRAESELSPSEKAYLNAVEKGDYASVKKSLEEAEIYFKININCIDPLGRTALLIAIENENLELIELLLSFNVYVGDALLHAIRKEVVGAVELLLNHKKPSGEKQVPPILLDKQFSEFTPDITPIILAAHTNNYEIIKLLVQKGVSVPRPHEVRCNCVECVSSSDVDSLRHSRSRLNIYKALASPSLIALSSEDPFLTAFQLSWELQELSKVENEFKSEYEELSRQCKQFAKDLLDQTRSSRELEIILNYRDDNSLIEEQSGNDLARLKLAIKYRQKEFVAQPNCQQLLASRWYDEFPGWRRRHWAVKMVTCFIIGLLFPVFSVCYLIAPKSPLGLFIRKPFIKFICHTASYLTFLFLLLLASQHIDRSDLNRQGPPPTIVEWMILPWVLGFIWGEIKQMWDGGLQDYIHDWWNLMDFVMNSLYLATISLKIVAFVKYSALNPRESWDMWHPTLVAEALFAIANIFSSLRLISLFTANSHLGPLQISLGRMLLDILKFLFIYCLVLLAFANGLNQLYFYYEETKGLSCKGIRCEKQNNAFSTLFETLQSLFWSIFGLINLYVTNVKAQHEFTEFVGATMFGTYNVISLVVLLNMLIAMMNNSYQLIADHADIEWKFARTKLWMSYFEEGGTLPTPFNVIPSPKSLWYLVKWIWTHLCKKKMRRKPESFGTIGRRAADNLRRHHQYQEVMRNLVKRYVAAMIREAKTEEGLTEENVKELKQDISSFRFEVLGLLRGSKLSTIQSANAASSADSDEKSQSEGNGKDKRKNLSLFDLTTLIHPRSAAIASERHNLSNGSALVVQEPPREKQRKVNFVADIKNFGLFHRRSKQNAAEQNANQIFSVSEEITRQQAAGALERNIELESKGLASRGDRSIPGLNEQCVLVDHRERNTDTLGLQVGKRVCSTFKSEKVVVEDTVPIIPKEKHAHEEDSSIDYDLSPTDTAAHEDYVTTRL
# [7] = NIH:OVCAR-3 ovarian cancer cell cytotoxicity, dose response, PAX8 inhibitor project, plate reader, dry powder samples (AID 743044); assay type: functional, cell-based
# [8] = THP-1 cell cytotoxicity, dose response, cytotoxicity control for non-replicating M. tuberculosis project (AID 489025); assay type: functional
# [9] = Vero E6 cell cytotoxicity, dose response, cytotoxicity control for non-replicating M. tuberculosis project, secondary assay (AID 492998); assay type: functional, VeroE6; conditions: Vero C1008
# cells = assay type: functional
# Sequence of Paired box protein Pax-8 (Q06710 whole entry): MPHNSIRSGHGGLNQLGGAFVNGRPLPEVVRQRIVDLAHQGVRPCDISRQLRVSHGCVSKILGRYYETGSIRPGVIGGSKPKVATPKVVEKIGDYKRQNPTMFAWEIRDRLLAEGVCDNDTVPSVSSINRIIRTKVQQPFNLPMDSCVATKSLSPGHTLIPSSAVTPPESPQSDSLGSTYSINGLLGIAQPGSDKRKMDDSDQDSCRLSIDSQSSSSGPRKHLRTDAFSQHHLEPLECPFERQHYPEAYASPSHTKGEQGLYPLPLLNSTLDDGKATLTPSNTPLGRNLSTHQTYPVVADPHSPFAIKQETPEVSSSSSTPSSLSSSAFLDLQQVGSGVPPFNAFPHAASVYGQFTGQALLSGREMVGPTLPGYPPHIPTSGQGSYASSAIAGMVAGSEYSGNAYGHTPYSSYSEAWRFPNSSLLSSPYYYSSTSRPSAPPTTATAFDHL
# Sequence of Nonstructural protein 1 (Q194T2 whole entry): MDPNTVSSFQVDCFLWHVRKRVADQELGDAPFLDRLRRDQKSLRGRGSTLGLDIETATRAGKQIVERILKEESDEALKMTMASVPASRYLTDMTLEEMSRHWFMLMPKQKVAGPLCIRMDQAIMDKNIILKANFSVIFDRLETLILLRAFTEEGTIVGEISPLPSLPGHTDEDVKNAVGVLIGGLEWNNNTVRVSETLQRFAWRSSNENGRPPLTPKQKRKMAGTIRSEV
compound,measurement,setting,value
C[C@@H]1CCCCO[C@@H](CN(C)C(=O)Nc2cccc3ccccc23)[C@H](C)CN([C@H](C)CO)C(=O)c2cc(NS(=O)(=O)c3ccc(F)cc3)ccc2O1,AC50,Paired box protein Pax-8,5.4 µM (active)
same,AC50,[1],45.5 µM (active)
same,AC50,[2],> 70 µM (inactive)
C=C(C)c1cccc(C(C)(C)NC(=O)NC2CN3CCC2CC3)c1 (configuration not stated),AC50,[3],15.6 µM (active)
Cc1[nH]n(-c2ccccc2)c(=O)c1C(C[N+](=O)[O-])c1ccc(Cl)cc1 (configuration not stated),AC50,[4],5.32 µM (active)
same,AC50,[3],9.52 µM (active)
same,EC50,Protein RecA,3.22 µM (active)
C[C@H](CO)N1C[C@H](C)[C@H](CN(C)Cc2ccc(Cl)c(Cl)c2)OCCCC[C@H](C)Oc2ccc(NC(=O)Nc3ccc(C(F)(F)F)cc3)cc2C1=O,AC50,Paired box protein Pax-8,5.3 µM (active)
same,AC50,[1],43.1 µM (active)
same,AC50,[2],63 µM (active)
O=C(N/N=C/c1ccccc1O)c1cc[n+]([O-])cc1,IC50,Nonstructural protein 1,4.49 µM (active)
Cc1ccc(Cn2c(Cc3ccccc3)nc3ccccc32)cc1,EC50,Streptokinase A,> 150 µM (not active)
same,EC50,Streptococcus,61.3 µM (active)
same,EC50,[5],12.5 µM (active)
same,EC50,[6],0.668 µM (active)
C[C@@H]1CN([C@@H](C)CO)C(=O)c2cc(NC(=O)c3ccccc3)ccc2O[C@@H](C)CCCCO[C@@H]1CN(C)Cc1ccc(C(F)(F)F)cc1,AC50,Paired box protein Pax-8,9.74 µM (active)
same,AC50,[7],30.4 µM (active)
same,AC50,[2],> 70 µM (inactive)
Cc1cccc(S(=O)(=O)N2CC[C@@H]3[C@H](CO)N(C)c4ccc(C#Cc5ccc(F)cc5)cc4[C@@H]32)c1,AC50,Paired box protein Pax-8,8.27 µM (active)
same,AC50,[1],41.8 µM (active)
same,AC50,[2],> 60 µM (inactive)
CC(=O)Oc1ccc(/C=C(\NC(=O)c2ccco2)C(=O)NCc2ccccc2)cc1,EC50,[6],1.68 µM (active)
O=C(/C=C/c1ccco1)Nc1ccccc1C(=O)O,AC50,[3],> 20 µM (inactive)
Cc1nn(C)cc1/C=N/NC(=O)c1sc2ccccc2c1Cl,CC50,[8],> 40 µM (active)
COc1cc2c(cc1OC)C(C)N(CCc1ccc(Cl)cc1)CC2 (configuration not stated),EC50,[6],0.105 µM (active)
O=C(c1ccccc1)c1nc[nH]c1C(=O)Nc1ccccc1,CC50,[9],> 20 µM (active)
same,IC50,cells,12.5 µM (active)
